As a reminder, the GI50 is the concentration that inhibits growth by half. For orientation: TGI means the concentration at which net growth stops. Lower therefore signals greater sensitivity of the cells.

Molecules are shown by their SMILES.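 96-well plates; 48 h exposure; 5 concentrations. Endpoints by linear interpolation between flanking doses. Not reached: highest tested concentration assigned. GI50 marks 50% less growth. TGI marks complete inhibition of growth.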

Holding throughout (test): DTP human tumour cell line panel, 48 h
The subject of assay [1] is 786-0 renal.
Assay [2] deals with CCRF-CEM leukemia.
Assay [3] relates to HOP-92 NSCLC.
The test system of assay [4] is HT29 colon.
The subject of assay [5] is KM12 colon.
Assay [6] deals with LOX IMVI melanoma.
Assay [7] relates to SK-MEL-5 melanoma.
Assay [8] has as its system SN12C renal.

With `Cc1ccc(S(=O)c2ccc([N+](=O)[O-])c3nonc23)cc1` (stereo unspecified), the GI50 was 13.2 µM in assay [1]; 2.3 µM in assay [2]; 4.09 µM in assay [3]; 4.08 µM in assay [4]; 15.8 µM in assay [5]; 5.88 µM in assay [6]. For the same molecule, the values for the GI50 in assay [7] and in assay [8] were 14.8 µM and 15 µM, respectively. For the same molecule, the TGI amounted to 26.2 µM in assay [1]; 6.27 µM in assay [2]; 17.2 µM in assay [3]; 22 µM in assay [4]; 31.1 µM in assay [5]; 19.2 µM in assay [6]. Further, the TGI in assay [7] was determined as 28.5 µM; in assay [8], 31.3 µM.

With `NCCNc1nc2ccccc2c2c(=O)c3cc(F)cc(Cl)c3sc12`, the GI50 in assay [1] is 1.64 µM; in assay [2], 1.31 µM; in assay [3], 1.39 µM; in assay [4], 1.56 µM; in assay [5], 1.73 µM; in assay [6], 1.66 µM. Moreover, the results for the GI50 in assay [7] and in assay [8] were 2.52 µM and 1.65 µM, respectively. Further, the TGI in assay [1] amounted to 3.14 µM; in assay [2] it was 2.82 µM; in assay [3] it was 3.06 µM; in assay [4], 3.3 µM; in assay [5] it was 3.24 µM; in assay [6] it was 3.17 µM. Moreover, the concentration for total growth inhibition (TGI) in assay [7] turned out to be 6.66 µM; in assay [8] it was 3.17 µM.

Regarding `NCCn1c2c(c3ccccc3c1=O)C(=O)c1ccccc1-2`, the GI50 in assay [1] is 0.552 µM; in assay [2] it was 0.33 µM; in assay [3], 0.626 µM; in assay [4], 0.401 µM; in assay [5] it was 0.325 µM; in assay [6], 0.347 µM. The GI50 is 0.386 µM in assay [7] and 0.266 µM in assay [8]. Besides, the concentration for total growth inhibition (TGI) in assay [1] amounted to 1.78 µM; in assay [2] it was 1.74 µM; in assay [3], 6.24 µM; in assay [4], 5.22 µM; in assay [5], 2.38 µM; in assay [6], 1.78 µM. Moreover, the concentration for total growth inhibition (TGI) stood at 1.9 µM in assay [7] and 2.13 µM in assay [8].

For `CC(=O)N=S(NC(=O)c1ccc(C)cc1)C(Cl)(Cl)Cl` (stereo unspecified), the total growth inhibition concentration (TGI) in assay [1] was 33.1 µM; in assay [2], 51.5 µM; in assay [3], greater than 100 µM; in assay [4] it was 60.6 µM; in assay [5], greater than 100 µM; in assay [6], 80.1 µM. Further, the figures for the TGI in assay [7] and in assay [8] were 77.9 µM and greater than 100 µM, respectively.

`Cc1ccc2c(C(C[N+](=O)[O-])c3ccco3)c(-c3ccccc3)[nH]c2c1` (stereo unspecified): the GI50 was 41.3 µM in assay [1]; 34.1 µM in assay [2]; greater than 100 µM in assay [3]; greater than 100 µM in assay [4]; 21.5 µM in assay [5]; 44.2 µM in assay [6]. For the same molecule, the GI50 is 29.7 µM in assay [7] and 47.8 µM in assay [8]. Besides, the TGI in assay [1], in assay [2], in assay [3], in assay [4], in assay [5] and in assay [6] was greater than 100 µM in each case. Also, the TGI in assay [7] and in assay [8] was greater than 100 µM in each case.

With `CC(C)(C)OC(=O)n1c(Cl)c(C(=O)N=C=S)c2ccccc21`, the GI50 in assay [1] was 80 µM; in assay [2], 35.5 µM; in assay [3] it was 17.2 µM; in assay [4], greater than 100 µM; in assay [5], 18.4 µM; in assay [6], 29.2 µM. Moreover, the GI50 was 18.8 µM in assay [7] and 67.1 µM in assay [8]. The concentration for total growth inhibition (TGI) in assay [1] is greater than 100 µM; in assay [2], greater than 100 µM; in assay [3] it was 65.4 µM; in assay [4] it was greater than 100 µM; in assay [5], 52 µM; in assay [6], greater than 100 µM. Besides, the figures for the concentration for total growth inhibition (TGI) in assay [7] and in assay [8] were 40.1 µM and greater than 100 µM, respectively.

Take `CNc1ccc(N=Nc2cccc3ncccc23)cc1`: the GI50 in assay [1] was greater than 88.4 µM; in assay [2], greater than 24 µM; in assay [3] it was 24.3 µM; in assay [4], 37.5 µM; in assay [5], 34.3 µM; in assay [6], 22.3 µM. Further, the GI50 in assay [7] was 23 µM; in assay [8], 36.5 µM. For the same molecule, the total growth inhibition concentration (TGI) in assay [1], in assay [2], in assay [3], in assay [4], in assay [5] and in assay [6] was greater than 100 µM each time. For the same molecule, the TGI in assay [7] and in assay [8] was greater than 100 µM each time.

With `Cc1ccc(-c2cc(C(Cl)Cl)on2)cc1`, the GI50 in assay [1] is 60.3 µM; in assay [2], 40.9 µM; in assay [3], 33.5 µM; in assay [4] it was 26.9 µM; in assay [5], 36.6 µM; in assay [6], 41.1 µM. For the same molecule, the GI50 in assay [7] was 25.3 µM; in assay [8], greater than 100 µM. Also, the total growth inhibition concentration (TGI) in assay [1], in assay [2], in assay [3], in assay [4], in assay [5] and in assay [6] was greater than 100 µM in each case. For the same molecule, the TGI in assay [7] and in assay [8] was greater than 100 µM throughout.

On to `NC1(C(=O)O)CSSC1`, for which the GI50 was 21.6 µM in assay [1]; 13.2 µM in assay [2]; 14.3 µM in assay [3]; 3.84 µM in assay [4]; 11.9 µM in assay [5]; 3.24 µM in assay [6]. Moreover, the GI50 in assay [7] is 1.91 µM; in assay [8], 3 µM. The TGI in assay [1] is greater than 100 µM; in assay [2], greater than 100 µM; in assay [3], 68.7 µM; in assay [4] it was 31.7 µM; in assay [5], 80.9 µM; in assay [6] it was 14.8 µM. The concentration for total growth inhibition (TGI) in assay [7] amounted to 3.68 µM; in assay [8] it was 12.3 µM.

The values are drawn from PubChem BioAssay (NCI).
